According to PMC4278837, “A Cyclic Peptidic Serine Protease Inhibitor: Increasing Affinity by Increasing Peptide Flexibility” (PLoS ONE, 2014):
Like-named read-outs stand apart in the source and are kept apart here. Bridge positions count the residues as written; N and C are the ends. Square brackets hold non-standard residues; d marks the D form. Peptide text beside a SMILES is read from it. Phe(4-guanidino) = N=C(N)Nc1ccc(C[C@H](N)C(=O)O)cc1

Assays:
[1] = target: T1, huPA-H99Y (Homo sapiens, UniProt P00749, H272Y); assay: Ki for inhibition of huPA-H99Y, chromogenic substrate S-2444; assay type: biochemical; settings: 37°C; means ± S.D.; read-out: K i for inhibition of huPA-H99Y
T1 construct: To ensure that the uPAs purified from the conditioned media were completely in the two-chain form, they were treated with plasmin; hexa-His (C); made in house; host or cells: HEK293 6E suspension cells
Source text: (§1) Determination of Ki values
(§2) The initial reaction velocities were monitored at an absorbance of 405 nm. The inhibition constants (K i) were subsequently determined from the non-linear regression analyses of plots for V i/V o versus [I]0, using Equation 2, derived under assumption of competitive inhibition:
(§3) [drawing 2] (2) where V i and V 0 are the reaction velocities in the presence and absence of inhibitor, respectively; [S]0 and [I]0 are the substrate and inhibitor concentrations, respectively; K M is K M for substrate hydrolysis by each protease. In Equation 2, it is assumed that [S]free ≈ [S]0 and [I]free ≈ [I]0.

[2] = target: T2, huPA-H99Y R35A (Homo sapiens, UniProt P00749, H272Y/R198A); assay: Ki for inhibition of huPA-H99Y-R35A, chromogenic substrate; assay type: biochemical; settings: 37°C; means ± S.D.; read-out: K i for inhibition of huPA-H99Y-R35A
T2 construct: To ensure that the uPAs purified from the conditioned media were completely in the two-chain form, they were treated with plasmin; hexa-His (C); made in house; host or cells: HEK293 6E suspension cells
Source text: as §1, §2, §3

[3] = target: T3, huPA-H99Y V41A (Homo sapiens, UniProt P00749, H272Y/V208A); assay: Ki for inhibition of huPA-H99Y-V41A, chromogenic substrate; assay type: biochemical; settings: 37°C; means ± S.D.; read-out: K i for inhibition of huPA-H99Y-V41A
T3 construct: To ensure that the uPAs purified from the conditioned media were completely in the two-chain form, they were treated with plasmin; hexa-His (C); made in house; host or cells: HEK293 6E suspension cells
Source text: as §1, §2, §3

[4] = target: T4, muPA wt (Mus musculus, UniProt P06869); assay: Ki for inhibition of muPA wt, chromogenic substrate; assay type: biochemical, murine; settings: means ± S.D.; read-out: K i for inhibition of muPA wt
T4 construct: To ensure that the uPAs purified from the conditioned media were completely in the two-chain form, they were treated with plasmin; hexa-His (C); made in house; host or cells: HEK293 6E suspension cells
T4 sequence (P06869 180-433 limits assumed): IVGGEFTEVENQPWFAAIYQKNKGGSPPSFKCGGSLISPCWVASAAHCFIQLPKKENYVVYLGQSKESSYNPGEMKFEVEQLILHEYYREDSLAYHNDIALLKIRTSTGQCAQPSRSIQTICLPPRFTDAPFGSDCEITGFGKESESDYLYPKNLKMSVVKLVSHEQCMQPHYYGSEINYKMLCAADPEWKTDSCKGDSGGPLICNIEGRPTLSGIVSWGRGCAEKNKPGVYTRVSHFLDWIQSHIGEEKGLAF
T4 sequence (P06869 21-178 partner limits assumed): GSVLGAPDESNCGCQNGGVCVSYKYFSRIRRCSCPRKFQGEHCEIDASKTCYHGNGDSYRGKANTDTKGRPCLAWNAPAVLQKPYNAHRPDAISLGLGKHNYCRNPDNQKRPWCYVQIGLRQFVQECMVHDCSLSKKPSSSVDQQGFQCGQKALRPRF
Source text: as §1, §2, §3

[5] = target: T5, muPA K41A (Mus musculus, UniProt P06869, K210A); assay: Ki for inhibition of muPA-K41A, chromogenic substrate; assay type: biochemical, murine; settings: means ± S.D.; read-out: K i for inhibition of muPA-K41A
T5 construct: To ensure that the uPAs purified from the conditioned media were completely in the two-chain form, they were treated with plasmin; hexa-His (C); made in house; host or cells: HEK293 6E suspension cells
T5 sequence (P06869 180-433 K210A): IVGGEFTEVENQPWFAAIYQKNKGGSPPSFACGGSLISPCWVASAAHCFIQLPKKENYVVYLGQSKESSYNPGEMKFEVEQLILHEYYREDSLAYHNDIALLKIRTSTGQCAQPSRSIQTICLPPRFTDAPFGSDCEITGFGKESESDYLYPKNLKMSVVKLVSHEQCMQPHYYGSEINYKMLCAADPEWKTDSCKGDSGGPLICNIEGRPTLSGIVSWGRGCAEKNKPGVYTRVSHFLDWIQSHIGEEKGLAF
T5 sequence (P06869 21-178 partner limits assumed): as the sequence (P06869 21-178 partner limits assumed) above
Source text: as §1, §2, §3

[6] = target: T6, muPA Y99A (Mus musculus, UniProt P06869, Y274A); assay: Ki for inhibition of muPA-Y99A, chromogenic substrate; assay type: biochemical, murine; settings: means ± S.D.; read-out: K i for inhibition of muPA-Y99A
T6 construct: To ensure that the uPAs purified from the conditioned media were completely in the two-chain form, they were treated with plasmin; hexa-His (C); made in house; host or cells: HEK293 6E suspension cells
T6 sequence (P06869 180-433 Y274A): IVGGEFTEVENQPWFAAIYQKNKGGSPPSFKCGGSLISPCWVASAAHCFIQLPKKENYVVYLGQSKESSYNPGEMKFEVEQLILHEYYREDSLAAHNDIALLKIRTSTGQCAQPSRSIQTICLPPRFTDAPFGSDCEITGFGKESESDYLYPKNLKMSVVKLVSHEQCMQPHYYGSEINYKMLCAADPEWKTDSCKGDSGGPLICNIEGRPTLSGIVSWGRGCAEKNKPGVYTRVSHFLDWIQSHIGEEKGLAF
T6 sequence (P06869 21-178 partner limits assumed): as the sequence (P06869 21-178 partner limits assumed) above
Source text: as §1, §2, §3

[7] = target: T7, muPA K143A (Mus musculus, UniProt P06869, K322A); assay: Ki for inhibition of muPA-K143A, chromogenic substrate; assay type: biochemical, murine; settings: means ± S.D.; read-out: K i for inhibition of muPA-K143A
T7 construct: To ensure that the uPAs purified from the conditioned media were completely in the two-chain form, they were treated with plasmin; hexa-His (C); made in house; host or cells: HEK293 6E suspension cells
T7 sequence (P06869 180-433 K322A): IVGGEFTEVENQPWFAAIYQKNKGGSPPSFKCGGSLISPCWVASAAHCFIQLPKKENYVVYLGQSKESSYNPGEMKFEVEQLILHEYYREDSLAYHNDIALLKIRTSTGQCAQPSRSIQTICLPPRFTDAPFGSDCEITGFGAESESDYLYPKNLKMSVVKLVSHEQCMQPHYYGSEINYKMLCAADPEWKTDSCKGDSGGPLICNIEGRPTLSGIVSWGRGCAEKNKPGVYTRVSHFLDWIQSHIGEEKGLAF
T7 sequence (P06869 21-178 partner limits assumed): as the sequence (P06869 21-178 partner limits assumed) above
Source text: as §1, §2, §3

[8] = target: T8, muPA S190A (Mus musculus, UniProt P06869, S373A); assay: Ki for inhibition of muPA-S190A, chromogenic substrate; assay type: biochemical, murine; settings: means ± S.D.; read-out: K i for inhibition of muPA-S190A
T8 construct: To ensure that the uPAs purified from the conditioned media were completely in the two-chain form, they were treated with plasmin; hexa-His (C); made in house; host or cells: HEK293 6E suspension cells
T8 sequence (P06869 180-433 S373A): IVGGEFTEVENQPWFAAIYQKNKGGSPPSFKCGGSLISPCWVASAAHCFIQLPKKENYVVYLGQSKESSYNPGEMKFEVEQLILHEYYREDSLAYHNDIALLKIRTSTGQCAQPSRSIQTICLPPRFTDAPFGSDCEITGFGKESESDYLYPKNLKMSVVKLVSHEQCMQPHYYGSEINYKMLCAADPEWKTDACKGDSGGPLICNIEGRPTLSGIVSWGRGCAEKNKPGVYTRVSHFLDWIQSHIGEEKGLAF
T8 sequence (P06869 21-178 partner limits assumed): as the sequence (P06869 21-178 partner limits assumed) above
Source text: as §1, §2, §3

[9] = target: T9, muPA V213T (Mus musculus, UniProt P06869, V396T); assay: Ki for inhibition of muPA-V213T, chromogenic substrate; assay type: biochemical, murine; settings: means ± S.D.; read-out: K i for inhibition of muPA-V213T
T9 construct: To ensure that the uPAs purified from the conditioned media were completely in the two-chain form, they were treated with plasmin; hexa-His (C); made in house; host or cells: HEK293 6E suspension cells
T9 sequence (P06869 180-433 V396T): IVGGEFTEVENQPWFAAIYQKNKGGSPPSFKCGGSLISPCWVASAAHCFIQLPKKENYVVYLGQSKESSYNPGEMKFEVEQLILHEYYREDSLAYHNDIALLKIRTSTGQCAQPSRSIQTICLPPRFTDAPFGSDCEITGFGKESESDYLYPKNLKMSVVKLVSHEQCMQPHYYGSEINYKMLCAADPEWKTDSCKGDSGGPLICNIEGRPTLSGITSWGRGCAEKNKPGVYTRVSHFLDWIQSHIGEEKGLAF
T9 sequence (P06869 21-178 partner limits assumed): as the sequence (P06869 21-178 partner limits assumed) above
Source text: as §1, §2, §3

[10] = target: T1, huPA-H99Y; assay: Surface plasmon resonance analysis of peptide binding to huPA-H99Y; settings: SPR
Method: (§4) Surface plasmon resonance (SPR) analysis
(§5) To determine the equilibrium binding constants (KD), the association rate constants (kon) and dissociation rate constants (koff) for peptide binding to uPA, surface plasmon resonance analysis was performed on a Biacore T200 instrument (Biacore, Uppsala, Sweden). A CM5 chip was coupled with the uPA variant (muPA or huPAH99Y) to be analysed, by injecting a concentration of 30 µg/mL uPA in immobilization buffer (10 mM sodium acetate, pH 5.0), aiming for an immobilised level of approximately 500 response units (RU). Immobilisation was followed by surface blocking with ethanolamine. A reference cell was prepared in the same way, without coupling of uPA. Mupain-1 variants in HBS with 0.1% BSA, in a dilution series, were injected at a flow rate of 30 µL per min during 60 s at 25°C. Subsequently, the dissociation was monitored during 600 s. Kinetic constants (k on and k off) were calculated with the Biacore Evaluation Software, using the 1∶1 kinetic fit. The K D values were calculated as k off /k on.

[11] = target: T10, muPA (Mus musculus, UniProt P06869); assay: Surface plasmon resonance analysis of peptide binding to muPA; parameters: species or system murine; settings: SPR, 25°C, pH 7.4
T10 construct: To ensure that the uPAs purified from the conditioned media were completely in the two-chain form, they were treated with plasmin; hexa-His (C); made in house; host or cells: HEK293 6E suspension cells
T10 sequence (P06869 180-433 limits assumed): as the sequence (P06869 180-433 limits assumed) above
T10 sequence (P06869 21-178 partner limits assumed): as the sequence (P06869 21-178 partner limits assumed) above
Method: as §4, §5

[12] = target: T11, huPA-H99Y (Homo sapiens, UniProt P00749, C299A/H272Y/N322Q); assay: Isothermal titration calorimetry for binding to huPA-H99Y catalytic domain; settings: ITC, 25°C, pH 7.4
T11 construct: recombinant uPA catalytic domain (residues 159–411), harbouring a H99Y mutation; made in house; host or cells: Pichia pastoris X-33 (secreted)
Method: For these experiments, we used the catalytic domain of huPA-H99Y expressed in and purified from Pichia pastoris strain X-33 (see above). The protein was dissolved in and dialysed against a buffer of 20 mM sodium phosphate, pH 7.4, 140 mM NaCl. The protein concentration was determined by absorbance at 280 nm, using an extinction coefficient of 43810 M^−1cm^−1. The peptides were dissolved in the above-mentioned buffer. All isothermal titration calorimetry experiments were performed with a MicroCal^TM ITC200 instrument equilibrated to a temperature of 25°C (298oK). The concentration of uPA-H99Y catalytic domain used in the 200 µl sample cell was 5–50 µM, depending on the affinity of the ligand. Titrations were performed by injecting 2 µl of the ligand until the total syringe volume of 40 µl was spent. Titration of ligand into buffer was performed to obtain buffer correction. The equilibrium association constant KA and the reaction enthalpy ΔH were calculated by fitting the integrated titration peaks using a one-binding-site model in the ITC ORIGIN7 programme package. The following formulas for Gibbs free energy ΔG were used to analyse the measured energies
[drawing 4] (4) where R is the gas constant and T the absolute temperature. ΔS, the entropic change during the reaction, was calculated using equations 3 and 4 and the measured K A and ΔH values.

[13] = target: huPA-H99Y Q192A (Homo sapiens, UniProt P00749, H272Y/Q373A); assay: Ki for inhibition of huPA-H99Y-Q192A, chromogenic substrate; assay type: biochemical; parameters: To ensure that the uPAs purified from the conditioned media were completely in the two-chain form, they were treated with plasmin; hexa-His (C); made in house; host or cells: HEK293 6E suspension cells; settings: 37°C; means ± S.D.; read-out: K i for inhibition of huPA-H99Y-Q192A
Source text: as §1, §2, §3

[14] = target: T12, huPA-H99Y K143A (Homo sapiens, UniProt P00749, H272Y/K320A); assay: Ki for inhibition of huPA-H99Y-K143A, chromogenic substrate; assay type: biochemical; settings: 37°C; means ± S.D.; read-out: K i for inhibition of huPA-H99Y-K143A
T12 construct: To ensure that the uPAs purified from the conditioned media were completely in the two-chain form, they were treated with plasmin; hexa-His (C); made in house; host or cells: HEK293 6E suspension cells
Source text: as §1, §2, §3

[15] = target: T1, huPA-H99Y; settings: 37°C; means ± S.D.; starred values reproduced from previous publications; ref Andersen et al., 2008; Hosseini et al., 2011; read-out: K i for inhibition of huPA-H99Y; cited from earlier work
[16] = target: T4, muPA wt; settings: means ± S.D.; starred values reproduced from previous publications; ref Andersen et al., 2008; Hosseini et al., 2011; read-out: K i for inhibition of muPA wt; cited from earlier work
[17] = 25°C, pH 7.4, calculated as k off/k on, read-out: K D, huPA-H99Y

`CC(=O)N[C@H]1CSSC[C@@H](C(N)=O)NC(=O)[C@H](C)NC(=O)[C@H](CC(C)C)NC(=O)[C@H](Cc2ccc(O)cc2)NC(=O)[C@H](Cc2ccc(NC(=N)N)cc2)NC(=O)[C@H](CO)NC(=O)[C@H](Cc2ccc(O)cc2)NC(=O)[C@H](C)NC(=O)[C@@H]2CCCN2C1=O` [Mupain-1-12 D9A, CPAYS[4-guanidino-phenyl-alanine]YLAC] (Ac-CPAYS[Phe(4-guanidino)]YLAC-NH2; disulfide 1-10; N-terminus assumed) showed a Ki [1] of 0.186 ± 0.036 µM, a Ki [2] of 0.231 ± 0.078 µM and a Ki [3] of 0.478 ± 0.137 µM. It also gave a Ki [4] of 0.19 ± 0.01 µM, a Ki [5] of 0.091 ± 0.007 µM and a Ki [6] of 5.89 ± 1.31 µM. For the same molecule, the Ki [7] was 1 ± 0.03 µM, the Ki [8] was 3.52 ± 0.5 µM and the Ki [9] was 0.166 ± 0.075 µM. The “k off, huPA-H99Y” value ([10]; 25°C, pH 7.4) was 7.94±0.39 (3) s^-1, ×10^2, the “k on, huPA-H99Y” value ([10]; 25°C, pH 7.4) was 5.93±0.33 (3) M^-1s^-1, ×10^-5 and the Kd [10, 17] was 0.134 ± 0.002 µM. The “k off, muPA” value [11] was 3.94±0.30 (3) s^−1, ×10^2, the “k on, muPA” value [11] was 2.42±1.01 (3) M^−1s^−1, ×10^−5 and the Kd ([11]; calculated as k off/k on, read-out: K D, muPA) was 0.177 ± 0.051 µM. For the same molecule, the Kd [12] was 0.138 ± 0.047 µM, the N [12] was 0.88±0.01 (3) and the TΔS [12] was −18.9±5.1 (3) ^1 kJ/mole. The ΔG [12] was −39.2±0.8 (3) ^1 kJ/mole, the ΔH [12] was −60.1±5.4 (3) ^1 kJ/mole and the Ki [13] was 0.438 ± 0.079 µM.
`CC(=O)N[C@H]1CSSC[C@@H](C(N)=O)NC(=O)[C@H](CC(=O)O)NC(=O)[C@H](CC(C)C)NC(=O)[C@H](Cc2ccc(O)cc2)NC(=O)[C@H](Cc2ccc(NC(=N)N)cc2)NC(=O)[C@H](CO)NC(=O)[C@H](Cc2ccc(O)cc2)NC(=O)[C@H](C)NC(=O)[C@@H]2CCCN2C1=O` [Mupain-1-12, CPAYS[4-guanidino-phenyl-alanine]YLDC] (Ac-CPAYS[Phe(4-guanidino)]YLDC-NH2; disulfide 1-10) showed a Ki [2] of 3.26 ± 1.04 µM, a Ki [3] of 1.6 ± 0.54 µM and a Ki [14] of 2.14 ± 0.78 µM. It also gave a Ki [5] of 1.72 ± 0.24 µM, a Ki [6] of 5.2 ± 0.06 µM and a Ki [7] of 1 ± 0.04 µM. The Ki [8] was 2.3 ± 0.46 µM, the Ki [9] was 0.086 ± 0.03 µM and the “k off, huPA-H99Y” value ([10]; 25°C, pH 7.4) was 24.6±1.2 (4) s^-1, ×10^2. For the same molecule, the “k on, huPA-H99Y” value ([10]; 25°C, pH 7.4) was 2.06±0.15 (4) M^-1s^-1, ×10^-5, the Kd [10, 17] was 1.21 ± 0.13 µM and the Kd ([10]; huPA-H99Y immobilized on CM5 chip, single example (S3 Fig), read-out: KD of fitted curve, representative sensorgram) was 1.32 µM. For the same molecule, the koff ([10]; huPA-H99Y immobilized on CM5 chip, single example (S3 Fig), read-out: koff of fitted curve, representative sensorgram) was 0.248 s⁻¹, the kon ([10]; huPA-H99Y immobilized on CM5 chip, single example (S3 Fig), read-out: kon of fitted curve, representative sensorgram) was 188000 M⁻¹ s⁻¹ and the “k off, muPA” value [11] was 1.92±0.63 (4) s^−1, ×10^2. For the same molecule, the “k on, muPA” value [11] was 1.56±0.95 (4) M^−1s^−1, ×10^−5, the Ki [15] was 1.86 ± 0.74 µM and the Ki [16] was 0.28 ± 0.02 µM. It also gave a Ki [13] of 2.35 ± 0.74 µM.
